Measured values published in publication PMC8887546, “Design and Synthesis of Brain Penetrant Glycopeptide Analogues of PACAP With Neuroprotective Potential for Traumatic Brain Injury and Parkinsonism” (Frontiers in drug discovery, 2022).
pEC50: −log10 of the molar value.

Assays:
[1] = target: T1, human VPAC2 receptor (Homo sapiens, UniProt P41587); assay: cAMP stimulation in CHO cells expressing VPAC2; assay type: cell-based
T1 construct: expressed in transfected cells; host or cells: CHO cells (G418 selection)
T1 sequence (P41587 24-438): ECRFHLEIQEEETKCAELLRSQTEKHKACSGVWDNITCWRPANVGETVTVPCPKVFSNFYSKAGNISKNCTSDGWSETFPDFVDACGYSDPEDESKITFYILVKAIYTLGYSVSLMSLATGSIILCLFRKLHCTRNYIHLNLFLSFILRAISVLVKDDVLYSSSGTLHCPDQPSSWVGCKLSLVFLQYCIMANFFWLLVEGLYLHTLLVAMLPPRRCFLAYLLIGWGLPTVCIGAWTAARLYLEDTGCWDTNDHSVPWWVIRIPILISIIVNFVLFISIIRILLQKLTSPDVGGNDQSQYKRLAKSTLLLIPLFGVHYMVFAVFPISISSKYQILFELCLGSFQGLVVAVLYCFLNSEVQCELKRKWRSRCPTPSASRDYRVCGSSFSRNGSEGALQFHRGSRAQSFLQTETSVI
How it was run: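 Serum-starved CHO cells expressing human receptors were pre-treated 20 min with 500 μM IBMX, then exposed to agonist concentration curves for 10 min in 500 μM IBMX. cAMP quantified by competition with bovine PKA and ^3H-cAMP (1 h, room temperature), scintillation read.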

[2] = tested on: Sprague Dawley rats, 6-OHDA lesion; assay: Unbiased stereology of TH-positive neurons in SNc (study 2); assay type: in vivo, rat; details: more severe (40%) lesion
Procedure: Rats were treated with 2LS98Lac or saline (vehicle) as outlined in the Schemes in Figures 9A,B via intraperitoneal (i.p.) injection (15 mg/kg). All animals were made hemi-parkinsonian with unilateral, striatal 6-hydroxydopamine (Sigma Aldrich, St. Louis, MO) injections. After surgery, behavioral assessments were done at 2- and 4-weeks post-surgery. 24 h after the last test animals were either euthanized and whole brains were harvested for future biochemical analysis or perfused and brains collected for immunohistochemistry and stereological assessment of tyrosine hydroxylase-positive (TH+) cells remaining in the SNc. In study 1: n = 16 each group were included, and all underwent the behavioral analysis: n = 16, and for the stereology in the SNc, n = 8 each group was used. In study 2: n = 23 each group were included. […]
Stereological probes were applied using a Zeiss Imager M2 microscope (Carl Zeiss, Jena, Germany) equipped with StereoInvestigator software (MBF Bioscience, VT, United States) according to previously published methods ([Corenblum et al., 2015]; [Anandhan et al., 2021]). Using the optical fractionator probe, cells were counted under the ×63 oil immersion objective by a blinded observer. TH+ cells were counted in sections 480 μm apart using a grid size of 170 × 100 μm and counting frame size of 75 × 75 μm. […]

[2H]C([2H])([2H])C([2H])(C([2H])([2H])[2H])[C@]([2H])(NC(=O)[C@H](C)NC(=O)[C@H](C)NC(=O)[C@H](CC(C)C)NC(=O)[C@H](Cc1ccc(O)cc1)NC(=O)[C@H](CCCCN)NC(=O)[C@H](CCCCN)NC(=O)[C@@]([2H])(NC(=O)[C@H](C)NC(=O)[C@H](CC(C)C)NC(=O)[C@H](CCC(N)=O)NC(=O)[C@H](CCCCN)NC(=O)[C@H](CCCNC(=N)N)NC(=O)[C@H](Cc1ccc(O)cc1)NC(=O)[C@H](CCCNC(=N)N)NC(=O)[C@H](CO)NC(=O)[C@H](Cc1ccc(O)cc1)NC(=O)[C@H](CO)NC(=O)[C@H](CC(=O)O)NC(=O)[C@@H](NC(=O)[C@H](Cc1ccccc1)NC(=O)[C@@H](NC(=O)CNC(=O)[C@H](CC(=O)O)NC(=O)[C@H](CO)NC(=O)[C@@H](N)Cc1c[nH]cn1)[C@@H](C)CC)[C@@H](C)O)C([2H])(C([2H])([2H])[2H])C([2H])([2H])[2H])C(=O)N[C@@H](CC(C)C)C(=O)N[C@@H](CO[C@@H]1O[C@H](CO)[C@@H](O[C@@H]2O[C@H](CO)[C@H](O)[C@H](O)[C@H]2O)[C@H](O)[C@H]1O)C(N)=O [Compound 2LS98Lac]
pEC50 [1]: 6.71
Emax ([1]; CHO): 100%
Receptor selectivity ratio VPAC2/PAC1 ([1]; ratio of cAMP EC50 values): 268.06
Receptor selectivity ratio VPAC2/VPAC1 ([1]; ratio of cAMP EC50 values): 428.89
Mean increase of nigral TH cells on the lesioned side vs vehicle ([2]; not significant (p = 0.2208)): 850 cells
Nigral TH-cell count on the lesioned side ([2]; three injections 15 mg/kg i.p., mean, vehicle 8,391): 9,244 cells
